We go through 1 molecule from patent US20260325485A1, “COMPOSITIONS AND METHODS FOR TREATING PANCREATITIS” (The United States Government as represented by the …, priority 2022, published 2026).

Entries after “also recorded” stand apart in the source; their conditions may differ.

One assay relates to CER/CCK-AP. Briefly: Effect of simvastatin and BemA in CER/CCK-AP (mouse and ex-vivo model). The protocol: (§1) FIGS. 25A-25C show reducing cholesterol overload greatly ameliorates experimental pancreatitis. CER-AP responses were measured in (A) AclyAac or (C) WT mice treated with simvastatin or bempedoic acid (BemA). (B) Acinar cells were transfected with ACLA (or mock) siRNA and subjected to ex-vivo CCK-AP. Each symbol represents an individual mouse or cell preparation. Values are mean±SE. **p<0.01, ***p<0.001 vs saline treated control mice (or mock transfection); #p<0.05, ##p<0.01, ###p<0.001 vs CER/CCK-AP in control mice (i.e. without inhibitors) or cells.
FIGS. 26A-26D preventing cholesterol overload ameliorates ex-vivo pancreatitis. Mouse pancreatic acinar cells were incubated (A, B) with simvastatin (4 μM, 3 h) or (C, D) cholesterol chelator, methyl-β-cyclodextrin (MCD; 10 mM, 1 h) and then subjected to CCK-AP for 1 (D) or 3 h (A, B). Cholesterol content (A, C) necrosis (B), and trypsin activity (D) were measured. Each symbol represents an individual cell preparation. Values are mean±SEM*p<0/05, **p<0.01 vs control; #p<0.05 ##p<0.01; vs CCK, no inhibitor.
Cholesterol metabolism is disrupted in pancreatitis as a result of lysosomal/autophagy dysfunction. Preventing acinar cell cholesterol overload with simvastatin alleviates AP in one experimental model (CER-AP). As discussed above, lysosomal/autophagy dysfunction is associated with both experimental and human pancreatitis.^6, 7, 9, 13, 17 However, until a recent publication^13 there was very little known on cholesterol metabolism in healthy pancreas, its changes in experimental and human pancreatitis, and role in disease severity. Further, effects of statins and other cholesterol-lowering drugs in pancreas, and the underlying mechanisms, have not been explored. […] This, in turn, stimulates a compensatory increase in cholesterol synthesis, further exacerbating cholesterol overload. It was further shown^13 that inhibition of cholesterol synthesis with simvastatin reduced acinar cell cholesterol overload and the severity of pancreatitis induced with supramaximal cerulein (CER), an ortholog of the hormone cholecystokinin-8 (CCK). The findings^13 reveal a previously unrecognized pathogenic role of cholesterol dysregulation in pancreatitis and indicate normalizing cholesterol metabolism as a novel therapeutic approach for disease treatment.
In summary, the published^13 and current data (FIGS. 23-26) reveal that disruption of acinar cell cholesterol metabolism is a common feature in models of experimental pancreatitis and also prominent in human disease. The key manifestation of cholesterol dyshomeostasis in pancreatitis is acinar cell cholesterol overload. […]

Assay [1] deals with cerulein pancreatitis (CER-AP). Briefly: Drug treatment of cerulein pancreatitis (CER-AP) in WT mice. In kind it is in vivo, mouse. The protocol: FIGS. 10A-10N show deranged cholesterol metabolism causes acinar cell damage, while its normalization ameliorates experimental pancreatitis. (A-D) Cholesterol content and trypsin activity were measured (per mg protein) in WT mouse acinar cells incubated for 1 hour without and with methyl-β-cyclodextrin (MCD; 10 mM) or cholesterol-loaded MCD (MCD-Chol; 200 μg/mL), in the presence or absence of 100 nM CCK. Values are expressed relative to those in cells without MCD/MCD-Chol. (E-J) WT mice received daily i.p. injections of the LXR agonist T0901317 (T09), simvastatin (Sim; 20 mg/kg each), or vehicle. On day 4, mice were subjected to CER-AP and pancreata collected for analyses (see also FIG. 20). Cholesterol content (E), trypsin activity (F), and pancreas histopathology (H&E staining; G) were measured. (H, I, L, and N) IB analysis of markers/mediators of autophagy (LC3, p62), ER stress (CHOP, GRP-78), and mitophagy (Parkin). Ub, ubiquitylated proteins. (J) Mitochondrial fragmentation was assessed by immunostaining for Tom20, as detailed in FIG. 7G. (K and L) Mouse acinar cells were treated for 16 hours with LDL (30 μg/mL) or the combination of LDL and 10 μM U18666A. (M and N) Mice received injections of U18666A as detailed in FIG. 9B. Pancreas histopathology (H&E staining; M) and levels of autophagy markers/mediators (N) were measured. Each symbol in A-F and I represents an individual mouse or cell preparation. Values are mean±SEM from 3 to 7 mice or cell preparations per condition. ^§ P<0.05, ^§§ P<0.01 vs. control cells (without MCD/MCD-Chol). ***P<0.001 vs. saline-treated mice. ^#P<0.05, ^##P<0.01, ^###P<0.001 vs. CER-AP alone (no inhibitors). Significance was determined by 2-tailed Student's t test (A-D) or 1-way ANOVA followed by Tukey's multiple comparison test (E, F, and I). Scale bars: 10 μm.
FIGS. 20A-20C show simvastatin improves cerulein pancreatitis. Mice received daily i.p. injections of simvastatin (Sim; 20 mg/kg) or vehicle (see FIG. 10), and on day 4 were subjected to cerulein pancreatitis (CER-AP). (A) Pancreas histopathology (H&E staining; scale: 10 μm). (B) IB analysis of markers/mediators of autophagy (LC3, p62), ER stress (CHOP), and the MLN64/STARD3 protein mediating cholesterol transfer from LE/Ly to mitochondria. Each IB lane represents an individual mouse; ERK1/2 is the loading control. […] Ub, ubiquitylated proteins. (C) Pancreatitis responses. Values are mean±SEM from 7-13 mice for each condition. ***p<0.001 vs saline control. ^###p<0.001 vs CER-AP alone (no simvastatin). Significance was determined by 1-way ANOVA followed by Tukey's multiple comparisons test.
as §1
Cerulein-induced (CER-AP) and L-arginine induced (Arg-AP) acute pancreatitis models were performed in 12-week-old C57BL/6 mice that received 7 hourly i.p. injections of 50 μg/kg cerulein or 3 hourly i.p. injections of 3.3 g/kg Arg; controls received physiologic saline injections. Mice were euthanized for analyses 7 hours after the first cerulein or 24 hours after the first Arg injection. Choline deficient, ethionine-supplemented (CDE) pancreatitis was induced in young (~5-weeks old) female mice fed either CDE or control diet. Mice were euthanized 72 hours after the diet initiation. These models have been described in detail (1-7).
12-week-old WT mice were subjected for 4 consecutive days to daily i.p. injections of 20 mg/kg simvastatin (8,9) or 20 mg/kg T0901317 (10); or 10 mg/kg U18666A for 15 days (11). […]

[2] abbreviates: CER-AP, T0901317 or simvastatin 20 mg/kg i.p. daily.
[3] abbreviates: WT mice treated with simvastatin or BemA.

For the molecule `CCC(C)(C)C(=O)O[C@H]1C[C@@H](C)C=C2C=C[C@H](C)[C@H](CC[C@@H]3C[C@@H](O)CC(=O)O3)[C@H]21` [simvastatin], in the assay with CER/CCK-AP, the “cholesterol overload, CER/CCK-AP” value was “reduced; also recorded: prevented” and the “disease severity, CER/CCK-AP” value is reported as “reduced”. For the same molecule, in assay [1] (CER-AP, 20 mg/kg i.p. daily), the “CER-induced increase in MLN64” value was “abrogated”, the “accumulation of LC3-II” value is recorded as “reduced”, the “accumulation of p62” value was “reduced” and the “accumulation of ubiquitylated proteins” value is “reduced”. Moreover, the “mitochondrial fragmentation (Tom20 IF)” value in assay [1] (CER-AP, 20 mg/kg i.p. daily) is recorded as “normalized”. In addition, in assay [1] (CER-AP, 20 mg/kg i.p. daily, ER stress), the CHOP levels entry is “decreased”. Further, in assay [1] (setting [2]), the “pancreatitis-induced increase in total cholesterol” value is “eliminated” and the “pancreatitis-induced increase in trypsin activity” value is given as “eliminated”. Besides, the other pancreatitis responses result in assay [1] (CER-AP, simvastatin 20 mg/kg i.p. daily, FIG. 20C) is listed as “ameliorated”. Moreover, in assay [1] (H&E, 20 mg/kg i.p. daily), the “pancreas histopathology in CER-AP” value was “improved”. In addition, in assay [1] (setting [3]), the “cholesterol overload in CER-AP (FIG. 25C)” value is on record as “decreased”, the “inflammation in CER-AP (FIG. 25C)” value was “ameliorated”, the “necrosis in CER-AP (FIG. 25C)” value is “ameliorated” and the “trypsin activity in CER-AP (FIG. 25C)” value is listed as “ameliorated”. The “pathologic responses of experimental pancreatitis (impaired autophagy, ER stress and others)” value in assay [1] (discussion statement) was “reduced”. Moreover, in assay [1] (overall result), the “experimental pancreatitis in WT mouse and ex vivo models” value is “ameliorated”.
